Laboratory results as given in PubChem BioAssay AID602133 (Sanford-Burnham Center for Chemical Genomics, 2011).
The source made the active and inactive calls. The rule behind the calls is not given here.

These molecules were tested against glucose-6-phosphate dehydrogenase-6-phosphogluconolactonase (Plasmodium falciparum 3D7) (assay: PfG6PD enzyme inhibitors, kinetic orthogonal readout, SAR follow-up, orthogonal assay for PfG6PD antimalarial inhibitor project, biochemical, kinetic direct NADPH detection, set 2 (AID 602133)). Settings: recombinant PfG6PD.
For CCN(CC)CCCC(C)Nc1ccnc2cc(Cl)ccc12 (stereo not drawn), the IC50 was 43 µM.
Molecule CC(C)(C)OC(=O)N1CCCC1CNC(=O)c1ccc2c(c1)NC(=O)/C(=C/c1ccccc1F)S2 (stereo not drawn) has an IC50 of 24.4 µM.
For NC1CCN(C(=O)c2ccc3c(c2)NC(=O)c2ccccc2S3)C1 (stereo not drawn), the IC50 was > 80 µM (inactive).
Work on CCN1CCC[C@@H]1CNC(=O)c1ccc2c(c1)NC(=O)c1ccccc1S2 yielded an IC50 of 4.84 µM.
With NCCNC(=O)c1ccc2c(c1)NC(=O)c1ccccc1S2 the IC50 was > 80 µM (inactive).
Molecule CCC(C)N(CCNC(=O)c1ccc2c(c1)NC(=O)c1ccccc1S2)C1CCCCC1 (stereo not drawn) has an IC50 of 13.3 µM.
Work on CCN1CCC[C@@H]1CNC(=O)c1ccc2c(c1)NC(=O)/C(=C/c1ccccc1F)S2 yielded an IC50 of 1.94 µM.
Work on CCN1CCC[C@H]1CNC(=O)c1ccc2c(c1)NC(=O)c1ccccc1S2 yielded an IC50 of 46.4 µM.
In the case of O=C(NCCN1CCOCC1)c1ccc2c(c1)NC(=O)c1ccccc1S2, the IC50 is reported as > 80 µM (inactive).
Molecule CCN1CCCC1CNC(=O)c1ccc2c(c1)NC(=O)/C(=C/c1ccc3ccccc3c1)S2 (stereo not drawn) has an IC50 of 2.88 µM.
CCN1CCC[C@H]1CNC(=O)c1ccc2c(c1)NC(=O)/C(=C/c1ccccc1F)S2 gave an IC50 of 4.65 µM.
With CCN1CCCC1CNC(=O)c1ccc2c(c1)NC(=O)/C(=C/c1ccc(F)cc1)S2 (stereo not drawn) the IC50 was 2.06 µM.
For NC1CCN(C(=O)c2ccc3c(c2)NC(=O)/C(=C/c2ccccc2F)S3)C1 (stereo not drawn), the IC50 was 35 µM.
With CN(C)c1ccccc1CNC(=O)c1ccc2c(c1)NC(=O)/C(=C/c1ccccc1F)S2 the IC50 was 67.8 µM.
CCN(CC)CCNC(=O)c1ccc2c(c1)NC(=O)/C(=C/c1ccccc1F)S2 was tested, and the IC50 was 4.75 µM.
O=C(NCCN1CCCCC1)c1ccc2c(c1)NC(=O)c1ccccc1S2 gave an IC50 of 18.3 µM.
For CCC(C)N1CCCC1CNC(=O)c1ccc2c(c1)NC(=O)c1ccccc1S2 (stereo not drawn), the IC50 was 9.97 µM.
In the case of CCN1CCCC1CNC(=O)c1ccc2c(c1)NC(=O)C(Cc1ccccc1F)S2 (stereo not drawn), the IC50 is reported as > 80 µM (inactive).
